Each structure is given as a SMILES string.

The record followed here is US9334263B2, “Compositions useful for treating disorders related to kit” (BLUEPRINT MEDICINES CORPORATION, priority 2013, dated 2016).

For the first test, the target named is T1, wild type Kit (Homo sapiens, UniProt P10721).
T1 construct: purchased Carna Bioscience 08-156
T1 sequence (P10721 26-976): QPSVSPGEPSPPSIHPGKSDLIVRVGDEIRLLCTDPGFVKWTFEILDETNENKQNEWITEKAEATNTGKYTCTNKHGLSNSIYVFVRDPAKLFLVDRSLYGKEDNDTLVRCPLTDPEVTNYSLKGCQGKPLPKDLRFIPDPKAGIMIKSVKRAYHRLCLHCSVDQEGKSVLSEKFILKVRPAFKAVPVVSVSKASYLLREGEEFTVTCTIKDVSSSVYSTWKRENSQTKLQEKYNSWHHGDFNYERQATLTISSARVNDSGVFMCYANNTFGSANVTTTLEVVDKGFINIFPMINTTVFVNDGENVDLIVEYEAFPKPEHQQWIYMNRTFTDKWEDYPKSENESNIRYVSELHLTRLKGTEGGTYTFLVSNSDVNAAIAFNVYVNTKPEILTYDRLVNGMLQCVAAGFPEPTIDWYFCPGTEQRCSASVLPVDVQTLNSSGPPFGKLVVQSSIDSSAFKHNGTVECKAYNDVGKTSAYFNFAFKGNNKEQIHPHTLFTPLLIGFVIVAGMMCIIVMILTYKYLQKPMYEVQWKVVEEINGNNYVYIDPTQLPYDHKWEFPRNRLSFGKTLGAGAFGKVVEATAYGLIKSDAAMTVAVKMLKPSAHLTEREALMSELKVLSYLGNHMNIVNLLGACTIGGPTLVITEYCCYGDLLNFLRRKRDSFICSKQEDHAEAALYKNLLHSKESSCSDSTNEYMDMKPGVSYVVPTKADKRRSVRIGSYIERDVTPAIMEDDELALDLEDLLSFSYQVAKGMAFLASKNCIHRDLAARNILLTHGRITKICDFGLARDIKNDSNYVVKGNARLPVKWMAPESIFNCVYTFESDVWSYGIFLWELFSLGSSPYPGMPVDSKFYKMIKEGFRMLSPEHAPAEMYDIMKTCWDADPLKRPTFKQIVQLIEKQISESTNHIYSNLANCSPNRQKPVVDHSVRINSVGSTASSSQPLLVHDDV
As to the kind of experiment: Kit wild type assay at Km (Caliper electrophoretic mobility shift). The test is classed as biochemical. Conditions: 400 uM ATP, 25 C, 90 minutes; read-out: WT KIT. The method, then:
In order to assess the activity of chemical compounds against the relevant kinase of interest, the Caliper LifeSciences electrophoretic mobility shift technology platform is used. Fluorescently labeled substrate peptide is incubated in the presence of kinase and ATP so that a […] proportion of the peptide is phosphorylated. At the end of the reaction, the mix of phosphorylated (product) and non-phosphorylated (substrate) peptides are passed through the microfluidic system of the Caliper EZ Reader 2, under an applied potential difference. The presence of the phosphate group on the product peptide provides a difference in mass and charge between those of the substrate peptide, resulting in a separation of the substrate and product pools in the sample. As the pools pass a LEDS within the instrument, these pools are detected and resolved as separate peaks. The ratio between these peaks therefore reflects the activity of the chemical matter at that concentration in that well, under those conditions.
The reaction was stopped by the addition of 70 ul of Stop buffer (100 mM HEPES pH 7.5, 0.015% Brij 35, 35 mM EDTA and 0.2% of Coating Reagent 3 (Caliper Lifesciences)). The plate was then read on a Caliper EZReader 2 (protocol settings: −1.9 psi, upstream voltage −700, downstream voltage −3000, post sample sip 35 s).
On to `CN1CCN(c2ccc(Nc3ncnc(N4CCN(c5ncc(Cc6ccccc6)cn5)CC4)n3)cc2)CC1` [Compound 156], for which the IC50 was below 10 nM.

With `Cc1cc(N2CCNCC2)ccc1Nc1ncnc(N2CCN(c3ncc(Cc4ccccc4)cn3)CC2)n1` [Compound 158], the IC50 fell in the range of 11 to 100 nM.

Take `C[C@@H]1CN(c2ncnc(Nc3ccc(N4CCOCC4)cc3)n2)CCN1c1ncc(Cc2ccccc2)cn1` [Compound 159]: the IC50 is 11 to 100 nM.

With `c1ccc(Cc2cnc(N3CCN(c4ncnc(Nc5cccc(CN6CCOCC6)c5)n4)CC3)nc2)cc1` [Compound 160], the IC50 lay within 11 to 100 nM.

Consider `c1ccc(Cc2cnc(N3CCN(c4ncnc(Nc5ccc(O[C@H]6CCCNC6)cc5)n4)CC3)nc2)cc1` [Compound 162], for which the IC50 is below 10 nM.

Take `OCCN1CCc2ccc(Nc3ncnc(N4CCN(c5ncc(Cc6ccccc6)cn5)CC4)n3)cc2C1` [Compound 163]: the IC50 is below 10 nM.

For the molecule `OCCC1CN(c2ncnc(Nc3ccc4c(c3)CNCC4)n2)CCN1c1ncc(Cc2ccccc2)cn1` (stereo not drawn) [Compound 164], the IC50 was below 10 nM.

Take `OC[C@H]1CCCN1c1ccc(Nc2ncnc(N3CCN(c4ncc(Cc5ccccc5)cn4)CC3)n2)cc1` [Compound 167]: the IC50 was 100 to 1000 nM.

For `OC[C@@H]1CCCN1c1ccc(Nc2ncnc(N3CCN(c4ncc(Cc5ccccc5)cn4)CC3)n2)cc1` [Compound 168], the IC50 lay in the range of 11 to 100 nM.

`c1ccc(Cc2cnc(N3CCN(c4ncnc(Nc5ccc(OC[C@H]6CCCN6)cc5)n4)CC3)nc2)cc1` [Compound 169]: the IC50 was 11 to 100 nM.

On to `c1ccc(Cc2cnc(N3CCN(c4ncnc(Nc5ccc(OC[C@@H]6CCCN6)cc5)n4)CC3)nc2)cc1` [Compound 170], for which the IC50 was in the range of 11 to 100 nM.

Take `CN1CCO[C@@H](Cn2cc(Nc3ncnc(N4CCN(c5ncc(Cc6ccccc6)cn5)CC4)n3)cn2)C1` [Compound 180]: the IC50 lay in the range of 11 to 100 nM.

With `CN1CCO[C@H](Cn2cc(Nc3ncnc(N4CCN(c5ncc(Cc6ccccc6)cn5)CC4)n3)cn2)C1` [Compound 181], the IC50 is below 10 nM.

Turning to `OC1(Cn2cc(Nc3ncnc(N4CCN(c5ncc(Cc6ccccc6)cn5)CC4)n3)cn2)CCNCC1` [Compound 182], the IC50 was in the range of 11 to 100 nM.

For `FC1(F)CN(Cc2cccc(Nc3ncnc(N4CCN(c5ncc(Cc6ccccc6)cn5)CC4)n3)c2)C1` [Compound 188], the IC50 lay within 11 to 100 nM.

For another test, the target named is T2, D816V Kit (Homo sapiens, UniProt P10721, D816V).
T2 construct: purchased Carna Bioscience 08-156
T2 sequence (P10721 26-976 D816V): as the sequence (P10721 26-976) above, with D791V counted along it
As to the kind of experiment: Kit D816V assay at Km (Caliper electrophoretic mobility shift). The class given is biochemical. Particulars: 15 uM ATP, 25 C, 90 minutes. In outline:
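Read-out is the ratio of phosphorylated to unphosphorylated fluorescent peptide, resolved by mobility shift on a Caliper EZ Reader 2.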
For the molecule `CN1CCN(c2ccc(Nc3ncnc(N4CCN(c5ncc(Cc6ccccc6)cn5)CC4)n3)cc2)CC1` [Compound 156], the IC50 is below 1 nM.

For `Cc1cc(N2CCNCC2)ccc1Nc1ncnc(N2CCN(c3ncc(Cc4ccccc4)cn3)CC2)n1` [Compound 158], the IC50 is 1.01 to 10 nM.

For the molecule `C[C@@H]1CN(c2ncnc(Nc3ccc(N4CCOCC4)cc3)n2)CCN1c1ncc(Cc2ccccc2)cn1` [Compound 159], the IC50 was in the range of 1.01 to 10 nM.

Consider `c1ccc(Cc2cnc(N3CCN(c4ncnc(Nc5cccc(CN6CCOCC6)c5)n4)CC3)nc2)cc1` [Compound 160], for which the IC50 fell in the range of 1.01 to 10 nM.

In the case of `c1ccc(Cc2cnc(N3CCN(c4ncnc(Nc5ccc(O[C@H]6CCCNC6)cc5)n4)CC3)nc2)cc1` [Compound 162], the IC50 is below 1 nM.

Consider `OCCN1CCc2ccc(Nc3ncnc(N4CCN(c5ncc(Cc6ccccc6)cn5)CC4)n3)cc2C1` [Compound 163], for which the IC50 is below 1 nM.

Regarding `OCCC1CN(c2ncnc(Nc3ccc4c(c3)CNCC4)n2)CCN1c1ncc(Cc2ccccc2)cn1` (stereo not drawn) [Compound 164], the IC50 is below 1 nM.

With `OC[C@H]1CCCN1c1ccc(Nc2ncnc(N3CCN(c4ncc(Cc5ccccc5)cn4)CC3)n2)cc1` [Compound 167], the IC50 lay within 1.01 to 10 nM.

Regarding `OC[C@@H]1CCCN1c1ccc(Nc2ncnc(N3CCN(c4ncc(Cc5ccccc5)cn4)CC3)n2)cc1` [Compound 168], the IC50 was in the range of 1.01 to 10 nM.

Regarding `c1ccc(Cc2cnc(N3CCN(c4ncnc(Nc5ccc(OC[C@H]6CCCN6)cc5)n4)CC3)nc2)cc1` [Compound 169], the IC50 is below 1 nM.

As for `c1ccc(Cc2cnc(N3CCN(c4ncnc(Nc5ccc(OC[C@@H]6CCCN6)cc5)n4)CC3)nc2)cc1` [Compound 170], the IC50 is below 1 nM.

With `CN1CCO[C@@H](Cn2cc(Nc3ncnc(N4CCN(c5ncc(Cc6ccccc6)cn5)CC4)n3)cn2)C1` [Compound 180], the IC50 is below 1 nM.

In the case of `CN1CCO[C@H](Cn2cc(Nc3ncnc(N4CCN(c5ncc(Cc6ccccc6)cn5)CC4)n3)cn2)C1` [Compound 181], the IC50 is below 1 nM.

`OC1(Cn2cc(Nc3ncnc(N4CCN(c5ncc(Cc6ccccc6)cn5)CC4)n3)cn2)CCNCC1` [Compound 182]: the IC50 was below 1 nM.

With `FC1(F)CN(Cc2cccc(Nc3ncnc(N4CCN(c5ncc(Cc6ccccc6)cn5)CC4)n3)c2)C1` [Compound 188], the IC50 fell in the range of 1.01 to 10 nM.

For the next test, the target named is T3, Kit D816V (HMC1.2 cells, Kit V560G and D816V) (Homo sapiens, UniProt P10721, D816V/V560G).
T3 construct: endogenous in cells; host or cells: HMC1.2 cells
T3 sequence (P10721 26-976 V560G/D816V): as the sequence (P10721 26-976) above, with V535G, D791V counted along it
Nature of the test: HMC1.2 autophosphorylation assay (AlphaLISA, phospho-Y719 c-Kit). The class given is cell-based. Particulars: Kit autophosphorylation at tyrosine 719, 90 minutes, read-out: Cellular Activity. In outline:
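Serum-starved (overnight, serum-free IMDM) HMC1.2 cells were treated for 90 min with a 10-point compound series (25 uM–95.4 pM, 0.25% DMSO final). Lysates were probed with phospho-Y719 and total c-Kit antibodies (15 nM final) plus AlphaLISA acceptor and streptavidin donor beads (2 h each, RT), with AlphaScreen read-out.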
Turning to `CN1CCN(c2ccc(Nc3ncnc(N4CCN(c5ncc(Cc6ccccc6)cn5)CC4)n3)cc2)CC1` [Compound 156], the IC50 was in the range of 10 to 100 nM.

`Cc1cc(N2CCNCC2)ccc1Nc1ncnc(N2CCN(c3ncc(Cc4ccccc4)cn3)CC2)n1` [Compound 158]: the IC50 is 100 to 1000 nM.

With `C[C@@H]1CN(c2ncnc(Nc3ccc(N4CCOCC4)cc3)n2)CCN1c1ncc(Cc2ccccc2)cn1` [Compound 159], the IC50 lay within 100 to 1000 nM.

Consider `c1ccc(Cc2cnc(N3CCN(c4ncnc(Nc5cccc(CN6CCOCC6)c5)n4)CC3)nc2)cc1` [Compound 160], for which the IC50 lay within 100 to 1000 nM.

In the case of `c1ccc(Cc2cnc(N3CCN(c4ncnc(Nc5ccc(O[C@H]6CCCNC6)cc5)n4)CC3)nc2)cc1` [Compound 162], the IC50 was below 10 nM.

In the case of `OCCN1CCc2ccc(Nc3ncnc(N4CCN(c5ncc(Cc6ccccc6)cn5)CC4)n3)cc2C1` [Compound 163], the IC50 lay in the range of 10 to 100 nM.

Consider `OCCC1CN(c2ncnc(Nc3ccc4c(c3)CNCC4)n2)CCN1c1ncc(Cc2ccccc2)cn1` (stereo not drawn) [Compound 164], for which the IC50 is below 10 nM.

On to `OC[C@H]1CCCN1c1ccc(Nc2ncnc(N3CCN(c4ncc(Cc5ccccc5)cn4)CC3)n2)cc1` [Compound 167], for which the IC50 was in the range of 10 to 100 nM.

Take `OC[C@@H]1CCCN1c1ccc(Nc2ncnc(N3CCN(c4ncc(Cc5ccccc5)cn4)CC3)n2)cc1` [Compound 168]: the IC50 lay within 10 to 100 nM.

For `c1ccc(Cc2cnc(N3CCN(c4ncnc(Nc5ccc(OC[C@H]6CCCN6)cc5)n4)CC3)nc2)cc1` [Compound 169], the IC50 is 10 to 100 nM.

In the case of `c1ccc(Cc2cnc(N3CCN(c4ncnc(Nc5ccc(OC[C@@H]6CCCN6)cc5)n4)CC3)nc2)cc1` [Compound 170], the IC50 fell in the range of 10 to 100 nM.

On to `CN1CCO[C@@H](Cn2cc(Nc3ncnc(N4CCN(c5ncc(Cc6ccccc6)cn5)CC4)n3)cn2)C1` [Compound 180], for which the IC50 was in the range of 10 to 100 nM.

Take `CN1CCO[C@H](Cn2cc(Nc3ncnc(N4CCN(c5ncc(Cc6ccccc6)cn5)CC4)n3)cn2)C1` [Compound 181]: the IC50 is 10 to 100 nM.

In the case of `OC1(Cn2cc(Nc3ncnc(N4CCN(c5ncc(Cc6ccccc6)cn5)CC4)n3)cn2)CCNCC1` [Compound 182], the IC50 was 10 to 100 nM.

As for `FC1(F)CN(Cc2cccc(Nc3ncnc(N4CCN(c5ncc(Cc6ccccc6)cn5)CC4)n3)c2)C1` [Compound 188], the IC50 fell in the range of 10 to 100 nM.
